Reference: US6680058B1, “Compositions and methods for contraception in or sterilization of mammals” (Board of Supervisors of Louisiana State University and …, priority 1997, dated 2004)
Where no end group is shown, it is not given here.

Tests used:
Type in all cases: in vivo, rat
[1] = system: sexually immature female rats; test: Sexually immature (33 day old) female rats, intravenous GnRH-hecate dose series, sacrificed at 24 hours or 14 days (Examples 39-43); details: for abnormal GnRH-receptor-containing neurons: sacrificed fourteen days after treatment
Protocol: Sexually immature (33 day old) female rats (randomly allocated into groups of three) were injected intravenously with saline or GnRH-hecate in saline as follows:
Animals were sacrificed at 24 hours or at 14 days after treatment. […] In the rats sacrificed fourteen days after treatment, 66% and 87% of the GnRH-receptor-containing neurons were abnormal in the rats that had received 1.0 and 1.5 mg of GnRH-hecate, respectively. Axonal degeneration in the 1.5 mg GnRH-hecate group was accompanied by over 90% reduction in median eminence staining for GnRH.

[2] = system: sexually immature female rats; test: Sexually immature female rats, two intravenous injections, examined after reaching breeding age (Examples 7-8)
Protocol: Two sexually immature female rats from the same litter (age 33 days) were given two intravenous injections of saline control solution 24 hours apart. After the rats reached breeding age, they were examined 105 days post-inoculation. […] During a fourteen-day monitoring period 107 days to 121 days post-inoculation, each of the control rats completed two estrous cycles. The rats were then sacrificed and necropsied. The reproductive organs appeared histologically normal.
Two sexually immature female rats from the same litter as those of Example 7 (age 33 days) were given two intravenous injections of 500 μg GnRH/hecate fusion peptide in saline 24 hours apart. After the rats reached breeding age, they were examined 105 days post-inoculation. […] Unlike the control rats, insertion of a cotton-tipped swab into the vagina was difficult. […] The rats were then sacrificed and necropsied.

[3] = system: sexually mature, mixed breed, female rats; test: Sexually mature female rats, double intravenous treatment, necropsy two weeks after treatment (Examples 9-14)
From the text: Eighteen sexually mature, mixed breed, female rats were randomly assigned to one of six groups containing three rats each. Each group of rats received a double treatment intravenously, as described below. Two weeks after the treatment, the rats were sacrificed and necropsied. The reproductive and endocrine organs were sectioned, weighed, and examined histologically.

[4] = system: sexually immature female rats; test: Thirty-three-day-old sexually immature female rats, intravenous, sacrificed 14 days after treatment, histology and immunocytochemistry (Examples 35-38); details: Treatment 37: 0.5 mg i.v.
Protocol: Another set of experiments was performed to study the in vivo effects of the GnRH-hecate conjugate on female rats and rabbits. The ovaries, uterus, oviducts, adrenals, spleen, thyroids, pancreas, liver, lungs, and heart were processed for histological analysis. […] The immunocytochemical staining procedures we used followed generally the procedures of M. Rahmanian et al., “Histological and immunocytochemical characterization of pituitary cell types in ponies,” Proc. 13th Soc. Equine Nutrition & Phys. Symp., pp. 348-349 (1993); M. Rahmanian et al., “Immunocytochemical localization of luteinizing hormone and follicle-stimulating hormone in the equine pituitary,” J. Anim. Sci., vol. 76, pp. 839-846 (1998); M. Rahmanian et al., “Immunocytochemical localization of prolactin and growth hormone in the equine pituitary,” Animal Sci., vol. 75, pp. 3010-3018 (1997); and P. Melrose et al., “Comparative topography of the immunoreactive alpha-melanocyte-stimulating hormone neuronal system in the brains of horses and rats,” Brain Beh. & Evol., vol. 32, pp. 226-235 (1988).
Brains were serially sectioned on a Vibrotome from the level of the diagonal band of Broca to the mammillary body. Alternate sections were consecutively divided into four to five dishes, and sections in alternate dishes were stained with cresyl violet, or were stained immunocytochemically for GnRH or the GnRH precursor, VP, OXY, or tyrosine hydroxylase (the rate-limiting enzyme in catecholamine synthesis). In addition to the staining procedures cited above, we also used the immunocytochemical staining procedures of P. Melrose et al., “Distribution and morphology of immunoreactive gonadotropin-releasing hormone (GnRH) neurons in the basal forebrain of ponies,” J. Comp. Neurol. vol. 339, pp. 269-287 (1994); and P. Melrose et al., “Topography of oxytocin and vasopressin neurons in the forebrain of Equus caballus: Further support of proposed evolutionary relationships for proopiomelanocortin, oxytocin and vasopressin neurons,” Brain, Beh. & Evol., vol. 33, pp. 193-204 (1989).
Thirty-three-day-old, sexually immature female rats were given intravenous administrations as follow:
Animals were sacrificed 14 days after treatment.

[5] = system: sexually mature, Sprague-Dawley female rats; test: Sexually mature Sprague-Dawley female rats, single intravenous treatment, necropsy 48 or 96 hours after treatment, H&E and PAS stain (Examples 15-22); details: for appearance of the pituitary glands: 1 mg i.v.
Protocol: Eight sexually mature, Sprague-Dawley female rats were randomly assigned to one of eight treatments. Each group of rats received a single treatment intravenously, as described below. Rats were sacrificed and necropsied either 48 or 96 hours after treatment. The ovaries, uterus, pancreas, liver, spleen, lungs, heart, thyroid, and adrenal glands were fixed in 10% buffered formalin; sectioned; and stained with H&E (hematoxylin and eosin) stain; except that the pituitary glands were stained with PAS (periodic acid-Schiff) stain with no counter-stain. The treatments were selected so that each animal received an equimolar amount of the compound with which it was treated.

[6] = 0.1 to 1.5 mg i.v., 24 hours or 14 days
[7] = two i.v. injections of 500 μg 24 hours apart at age 33 days, necropsy after day 121
[8] = Treatment 10: two 0.5 mg i.v. injections 24 hours apart, two weeks
[9] = Treatment 14: fusion peptide further purified by HPLC, two 0.5 mg i.v. injections 24 hours apart

GnRH-hecate: fusion peptide of modified GnRH bonded directly to the lytic peptide hecate, SEQ. ID NO. 3 (QHWSYGLRPGFALALKALKKALKKLKKALKKAL; ends and bridges not checked; also: GnRH part modified, modification not given here)
abnormal GnRH-receptor-containing neurons ([1]; 1.0 mg i.v.): 66% | reduction in median eminence staining for GnRH ([1]; 1.5 mg i.v.): over 90% | abnormal GnRH-receptor-containing neurons ([1]; 1.5 mg i.v.): 87% | VP staining in the CNS [1, 6]: not altered | precipitate in the brain [1, 6]: no precipitate was found in the brain | morphology of GnRH-receptor-containing neurons ([1]; treatments with higher levels of GnRH-hecate): a large number of GnRH-receptor-containing neurons having abnormal morphologies | estrous cycling during fourteen-day monitoring period ([2]; two i.v. injections of 500 μg 24 hours apart at age 33 days, 107 to 121 days post-inoculation): neither of the treated rats demonstrated estrous or metestrous | insertion of a cotton-tipped swab into the vagina ([2]; two i.v. injections of 500 μg 24 hours apart at age 33 days, 105 days post-inoculation): difficult | ovarian follicles at necropsy [2, 7]: contained no large follicles, and had a high number of atretic follicles | uterine and oviductal epithelia at necropsy [2, 7]: thinned, inactive | appearance of external genitalia ([2]; two i.v. injections of 500 μg in saline 24 hours apart at age 33 days, examined 105 days post-inoculation): appeared small | ovarian function / follicular development ([3]; Treatment 10: total 1.0 mg in saline i.v. as two 0.5 mg injections 24 hours apart, two weeks): arrest of normal ovarian follicular development | corpora lutea and follicles [3, 8]: Few corpora lutea were present, and those that were present appeared old. Follicles were large, and had not ruptured | pituitary size [3, 8]: slightly smaller than the pituitaries from the saline control group | uterine morphology [3, 8]: consistent with hormonal inactivity | corpora lutea and follicles [3, 9]: Few corpora lutea were present, and those that were present appeared old. Follicles were large, and had not ruptured | uterine morphology [3, 9]: consistent with hormonal inactivity | ovarian function / follicular development ([3]; Treatment 14: fusion peptide further purified by HPLC, two 0.5 mg i.v. injections 24 hours apart, two weeks): arrest of normal ovarian follicular development | reduction of pituitary weights compared to the two GnRH control groups ([4]; 33-day-old female rat, 14 days after treatment): 13% | adrenocorticotropic hormone levels in the pars distalis ([4]; 14 days): reduced | cell bodies of GnRH-stained neurons in hypophysiotropic areas of the brain ([4]; 14 days): frequently deformed | histology of the C1 and C3 fields of the hippocampus ([4]; 14 days): histological damage to cells | number of alpha-MSH-stained cells in the pars distalis ([4]; 14 days): increased | pathological changes in any other tissues ([4]; 14 days): No pathological changes | reduction of the numbers of bLH-specific gonadotropes compared to the two GnRH control groups ([4]; 14 days): 92% | VP staining in the paraventricular nucleus ([4]; 14 days, may have been caused by a precipitate): increased staining of parvicellular VP neurons in the paraventricular nucleus | appearance of the pituitary glands ([5]; sacrificed 48 hours after injection): slightly enlarged, hyperemic, and edematous | appearance of the pituitary glands ([5]; sacrificed 96 hours after injection): slightly hyperemic, but of expected size | gross lesions in the organs ([5]; 1 mg in 100 μL saline (2.7 mM) i.v., sacrificed 48 or 96 hours after injection): No gross lesions were noted in the organs of any of the four animals, other than the pituitary
